US20020052295A1, “Diacyl derivatives of propylene diamine having herbicidal activity” (priority 1999, published 2002)

Columns and labels:
[1] = system: monocotyledonous and dicotyledonous annual plant species; assay: Greenhouse pre-emergence test, all species of the test taken together; type: in vivo
From the text: All such uses, and the biological activity enabling such uses, are embraced by the term “herbicidal” herein. […] Where herbicidal activity was evident but 80% inhibition was not achieved at the highest rate tested (typically 1000 g/ha), an asterisk (*) is shown in the following tables. Herbicidal activity evident in the form of symptoms of phytotoxicity, in the absence of at least 80% inhibition at any rate, is indicated in the tables by “phyto”. A blank cell in the following tables indicates no herbicidal or phytotoxic response at any rate tested.
(§1) The pre-emergence tests were conducted by the following procedure. Topsoil was sieved to pass through a 1.27 cm screen. Fertilizer was added to the topsoil and the mixture was then sterilized by heating. The topsoil mixture was placed in a pot and compacted to a depth of 1.0 to 1.25 cm from the top of the pot. Seeds of each of several monocotyledonous and dicotyledonous annual plant species were placed on top of the soil. Additional soil was subsequently placed over the seeds to level-fill the pot. A known amount of each test compound dissolved or suspended in an appropriate organic solvent was diluted with a 50:50 mix of acetone and water and applied to the surface of the soil. After treatment the plants were placed in a greenhouse with a 30/21° C. day/night temperature regime where they received 0.64 cm of overhead irrigation. All subsequent watering consisted of a light overhead mist and/or subirrigation as needed for germination and growth.
Pre-emergence herbicidal activity of the compound of Example 5, a racemic mixture of R- and S-enantiomers of N,N′-(1,2-propanediylbis)-3-(trifluoromethyl) benzamide, was compared with that of the individual R- and S-enantiomers, the compounds of Examples 5a and 5b respectively. The procedure was exactly as described above. Rates tested were 1000, 650, 300, 200, 100, 65, 30 and 10 g/ha.
In a greenhouse pre-emergence test conducted according to the procedure described hereinabove, R—N,N′-(1,2-propanediylbis)-3-(trifluoromethyl)benzamide (the compound of Example 5a) was applied at 200 g/ha and acetochlor was applied at 100 g/ha, both individually and in combination.
In the same greenhouse pre-emergence test, R-2-fluoro-3-trifluoromethyl-N-[1-methyl-2-(3-trifluoromethyl)phenylcarbonylamino]ethylbenzamide (the compound of Example 13) was applied at 100 g/ha and acetochlor was applied at 100 g/ha, both individually and in combination.

BRAPP = assay: Pre-emergence herbicidal activity on BRAPP (broadleaf signalgrass); type: in vivo, Brachiaria platyphylla
How it was run: (§2)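 GR80 values come from percent inhibition relative to untreated plants, rated roughly 14 days after planting and treating, with rates up to typically 1000 g/ha. Compound was sprayed onto the soil over freshly covered seeds as a dilution in 50:50 acetone/water; pots kept in greenhouse at 30/21° C. day/night after 0.64 cm overhead watering.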

POROL = assay: Pre-emergence herbicidal activity on POROL (common purslane); type: in vivo, Portulaca oleracea
How it was run: as §2

CONAR = assay: Pre-emergence herbicidal activity on CONAR (field bindweed); type: in vivo, Convolvulus arvensis
How it was run: as §2

AMARE = assay: Pre-emergence herbicidal activity on AMARE (redroot pigweed); type: in vivo, Amaranthus retroflexus
How it was run: as §2

SETFA = assay: Pre-emergence herbicidal activity on SETFA (giant foxtail); type: in vivo, Setaria faberi
How it was run: as §2

PANDI = assay: Pre-emergence herbicidal activity on PANDI (fall panicum); type: in vivo, Panicum dichotomiflorum
How it was run: as §2

DIGSA = assay: Pre-emergence herbicidal activity on DIGSA (large crabgrass); type: in vivo, Digitaria sanguinalis
How it was run: as §2

CIRAR = assay: Pre-emergence herbicidal activity on CIRAR (canada thistle, seedling); type: in vivo, Cirsium arvense
How it was run: as §2

PANMI = assay: Pre-emergence herbicidal activity on PANMI (wild proso millet); type: in vivo, Panicum miliaceum
How it was run: as §2

SOLNI = assay: Pre-emergence herbicidal activity on SOLNI (black nightshade); type: in vivo, Solanum nigrum
How it was run: as §2

SORHA = assay: Pre-emergence herbicidal activity on SORHA (johnsongrass, seedling); type: in vivo, Sorghum halepense
How it was run: as §2

ECHCG = assay: Pre-emergence herbicidal activity on ECHCG (barnyardgrass); type: in vivo, Echinochloa crus-galli; conditions: racemic mixture vs enantiomers test; rates tested 1000, 650, 300, 200, 100, 65, 30 and 10 g/ha; lowest rate with 80% or greater inhibition
How it was run: as §2

CHEAL = assay: Pre-emergence herbicidal activity on CHEAL (common lambsquarters); type: in vivo, Chenopodium album
How it was run: as §2

SORVU = assay: Pre-emergence herbicidal activity on SORVU (shattercane); type: in vivo, Sorghum vulgare; conditions: racemic mixture vs enantiomers test; rates tested 1000, 650, 300, 200, 100, 65, 30 and 10 g/ha; lowest rate with 80% or greater inhibition
From the text: All such uses, and the biological activity enabling such uses, are embraced by the term “herbicidal” herein. Tables 15 and 16 summarize results of tests conducted as described below to determine the pre-emergence herbicidal activity, in the form of a GR80 value, of illustrative compounds of this invention. […] Where herbicidal activity was evident but 80% inhibition was not achieved at the highest rate tested (typically 1000 g/ha), an asterisk (*) is shown in the following tables. Herbicidal activity evident in the form of symptoms of phytotoxicity, in the absence of at least 80% inhibition at any rate, is indicated in the tables by “phyto”. A blank cell in the following tables indicates no herbicidal or phytotoxic response at any rate tested.
as §1
Approximately 14 days after planting and treating, the plants were observed and herbicidal efficacy recorded as percent inhibition by comparison with untreated plants.
The plant species usually regarded as weeds which were utilized in the tests are identified in the tables below according to the following legend, in which “d” indicates a dicotyledonous species and “m” a monocotyledonous species. All monocotyledonous species included in the tests herein are grasses.

DATST = assay: Pre-emergence herbicidal activity on DATST (jimsonweed); type: in vivo, Datura stramonium
How it was run: as §2

ABUTH = assay: Pre-emergence herbicidal activity on ABUTH (velvetleaf); type: in vivo, Abutilon theophrasti
How it was run: as §2

[2] = racemic mixture vs enantiomers test, rates tested 1000, 650, 300, 200, 100, 65, 30 and 10 g/ha, lowest rate with 80% or greater inhibition
[3] = applied alone at 100 g/ha, greenhouse
[4] = pre-emergence application, acetochlor 100 g/ha alone

CC(CNC(=O)c1cccc(C(F)(F)F)c1)NC(=O)c1cccc(C(F)(F)F)c1 (stereo not shown) [Example 5b]
pre-emergence herbicidal activity (in words) ([1]; rates 1000 to 10 g/ha, all species of Tables 19 and 20): completely inactive | Pre-emergence activity (GR80) BRAPP (BRAPP; [2]): [empty] | Pre-emergence activity (GR80) PORAL (POROL; [2]): [empty] | Pre-emergence activity (GR80) CONAR (CONAR; [2]): [empty] | Pre-emergence activity (GR80) AMARE (AMARE; [2]): [empty] | Pre-emergence activity (GR80) SETFA (SETFA; [2]): [empty] | Pre-emergence activity (GR80) PANDI (PANDI; [2]): [empty] | Pre-emergence activity (GR80) DIGSA (DIGSA; [2]): [empty] | Pre-emergence activity (GR80) CIRAR (CIRAR; [2]): [empty] | Pre-emergence activity (GR80) PANMI (PANMI; [2]): [empty] | Pre-emergence activity (GR80) SOLNI (SOLNI; [2]): [empty] | Pre-emergence activity (GR80) SORHA (SORHA; [2]): [empty] | Pre-emergence activity (GR80) ECHCG (ECHCG): [empty] | Pre-emergence activity (GR80) CHEAL (CHEAL; [2]): [empty] | Pre-emergence activity (GR80) SORVU (SORVU): [empty] | Pre-emergence activity (GR80) DATST (DATST; [2]): [empty] | Pre-emergence activity (GR80) ABUTH (ABUTH; [2]): [empty]

CCOCN(C(=O)CCl)c1c(C)cccc1CC [Acetochlor, acetochlor, reference compound]
number of the 14 species showing >85% control ([1]; acetochlor alone at 100 g/ha): 7 | Percent control by pre-emergence application, BRAPP (BRAPP; [3]): 76% | Percent control BRAPP (BRAPP; [4]): 76% | Percent control by pre-emergence application, POROL (POROL; [3]): 100% | Percent control POROL (POROL; [4]): 100% | Percent control by pre-emergence application, CONAR (CONAR; [3]): 23% | Percent control CONAR (CONAR; [4]): 23% | Percent control by pre-emergence application, AMARE (AMARE; [3]): 100% | Percent control AMARE (AMARE; [4]): 100% | Percent control by pre-emergence application, SETFA (SETFA; [3]): 100% | Percent control SETFA (SETFA; [4]): 100% | Percent control by pre-emergence application, PANDI (PANDI; [3]): 100% | Percent control PANDI (PANDI; [4]): 100% | Percent control by pre-emergence application, DIGSA (DIGSA; [3]): 100% | Percent control DIGSA (DIGSA; [4]): 100% | Percent control by pre-emergence application, CIRAR (CIRAR; [3]): 100% | Percent control CIRAR (CIRAR; [4]): 100% | Percent control by pre-emergence application, PANMI (PANMI; [3]): 83% | Percent control PANMI (PANMI; [4]): 83% | Percent control by pre-emergence application, SOLNI (SOLNI; [3]): 75% | Percent control SOLNI (SOLNI; [4]): 75% | Percent control by pre-emergence application, SORHA (SORHA; [3]): 83% | Percent control SORHA (SORHA; [4]): 83% | Percent control by pre-emergence application, CHEAL (CHEAL; [3]): 100% | Percent control CHEAL (CHEAL; [4]): 100% | Percent control by pre-emergence application, DATST (DATST; [3]): 33% | Percent control DATST (DATST; [4]): 33% | Percent control by pre-emergence application, ABUTH (ABUTH; [3]): 0% | Percent control ABUTH (ABUTH; [4]): 0%
